{
  "source": "paper PMC10917775",
  "about": "“Endogenous stimuli-responsive separating microneedles to inhibit hypertrophic scar through remodeling the pathological microenvironment” (Nature Communications, 2024)",
  "key": {"NIH/3T3 fibroblasts [1]": {"tested_on": "NIH/3T3 fibroblasts", "experiment": "CCK-8 cell viability / cytotoxicity assay", "assay_type": "cell-based", "conditions": "for inhibitory effect on fibroblasts compared among 5-FuA, 5-FuA-Pep-MA and 5-FuA-Pro-Pro: all the concentrations (80, 125, 250 μM), 48 h, CCK-8, one-way ANOVA, n = 4", "description": "In vitro cell viability and cytotoxicity. The CCK-8 assays were used to detect the cytotoxicity of\n5-Fu and 5-Fu derivatives towards NIH/3T3 fibroblasts. Briefly, NIH/3T3 fibroblasts were cultured\nwith DMEM medium (containing 10% FBS and 1% penicillin-streptomycin) at 37 °C with 5% CO2.\nThen, NIH/3T3 fibroblasts were seeded in 96-well plates at a density of 5 × 10^3 cells/well and\ncultured for 12 h to adhere to the bottom of the plates. Subsequently, the medium was replaced with\nconcentrations of 80, 125, 250 μM, respectively. The cells treated with the neat medium were taken\nas the control group. After 48 h of incubation, the CCK-8 kit was added, and the absorption of each\nwell at 450 nm was measured with a microplate reader (Multiskan MK3, ThermoFisher Scientific,\nUSA) to calculate the cell viability."}, "rabbit ear HS model": {"tested_on": "rabbit ear HS model", "experiment": "In vivo HS inhibition study, scar elevation index from H&E sections", "design": "species or system rabbits (Oryctolagus cuniculus)", "conditions": "after the 3rd administration (once a week for 3 weeks), before treatment 3.5 in drug-loaded MNs group, untreated HS group 3.3, 5-Fu injection 120 μg per lesion, mean of n = 3", "experimental": "We investigated therapeutic effects of separating MNs on HS model in rabbit ears. Among the 15 rabbits, three rabbits were used as the control group (normal skin, NS), and the other 12 rabbits were used to establish HS model. The rabbit ear HS model was established according to a standard method, i.e., 4 HS lesions on each ear and 96 in total. Briefly, the rabbits were anesthetized with sodium pentobarbital (30 mg/kg) and operated under sterile conditions. Then, 4 round-shaped wounds of 7 mm diameter were created on the ventral surface of each ear, which were kept away from the central auricular artery and the periauricular vein. The epidermis, dermis, and perichondrium in each wound was removed thoroughly. After the procedures, the wounds were washed with 0.1% benzalkonium chloride solution to sterilize. In the following 2 weeks, after the rabbits were anesthetized, the newly formed wound tissues were removed to accelerate the formation of HS. […]\nThe three rabbits without treatment were taken as the control group (group 1, NS). […] The macroscopic images were recorded on the 21st day (before administration), the 29th day (1 week after the 1st administration), the 36th day (1 week after the 2nd administration), the 43rd day (1 week after the 3rd administration) and the 50th day (1 week follow-up). […]"}, "[2]": {"design": "method as in earlier work", "conditions": "in blood circulation; ref Oncol. Lett. 2018, 15, 7175; Cancer Res. 1978, 38, 3479; Cancer Biol. Ther., 2012, 13, 1407; Cancer Chemother. Pharmacol. 2013, 71, 351; Biomater. Sci. 2017, 5, 502; cited from earlier work", "source_text": "Response: Thanks for the questions. […] Corticosteroids could reduce inflammation response, promote vasoconstrictive effect, and inhibit fibroblast proliferation to treat HS."}, "NIH/3T3 fibroblasts [3]": {"tested_on": "NIH/3T3 fibroblasts", "experiment": "In vitro wound scratch (migration) assay", "assay_type": "cell-based", "conditions": "80 μM drug with 0.5% FBS, after 48 h of incubation, Image J, n = 3, control almost complete closure within 48 h", "description": "In vitro wound scratch assay. Wound scratch assays were used to evaluate the migration of\nNIH/3T3 fibroblasts were seeded into 24-well plates at a density of 2 × 10^4 cells/well for 8 h. Then,\nthe sterile pipette tips were used to draw the scratch in the center of the wells, and the cells scratched\noff were washed away with PBS for 3 times. 500 μL of drug solutions consisting of 80 μM of 5-"}, "[4]": {"tested_on": "human hypertrophic scar fibroblast (HSFb)", "experiment": "Intracellular ROS scavenging (ROS assay kit, DCFH-DA, CLSM)", "assay_type": "cell-based", "conditions": "HSFb stimulated with ROSup, 5-FuA-Pep-MA 50, 100 and 200 μM, 12 h, with increased concentration", "experimental": "The migration of cells was imaged with an inversion microscope at 0, 24 and 48 h. The area of the scratch was analyzed by Image J, and the wound healing rate (WHR) was calculated according to the following equation: WHR (%) = (A0 − At)/A0 × 100%, where A0 and At represented the area of scratch at 0 h and t h, respectively.\nIntracellular ROS scavenging. ROS assay kit was used to observe the elimination of intracellular ROS by 5-FuA-Pep-MA. Specifically, HSFbs were seeded in 8-well confocal dishes at a density of 1 × 10^4 cells/well and cultured for 12 h to adhere to the bottom of the dishes. […]\nImmunohistochemical, fluorescence and immunofluorescence staining of HS tissues. The ROS levels in HS tissues were measured by the fluorescence and immunofluorescence methods on day\n43rd. […] The expression of MMP2 and MMP9 in HS tissues were measured by immunohistochemistry and immunofluorescence methods on day 43rd. […]\nRNA sequencing and sample collection. […] RNA integrity was assessed using the RNA Nano 6000 Assay Kit of the Bioanalyzer 2100 system (Agilent Technologies, CA, USA). PCR products were purified (AMPure XP system) and library quality was assessed on the Agilent Bioanalyzer 2100 system. […]\nQuality control. Firstly, raw data (raw reads) of fastq format were processed through in-house perl scripts. […]"}, "[5]": {"experiment": "ROS-responsive cleavage of prodrug by H2O2 (HPLC)", "assay_type": "physicochemical", "conditions": "PBS with 10, 50, 100 and 300 μM H2O2, 37 °C, 24-120 h, HPLC peak area, n = 3", "source_text": "pathological microenvironment of HS tissues determined the drug release rate and […]\nIndeed, the size, thickness and duration vary in patients with HS, which could affect the amount of drug needed. […]\nfibroblasts/myofibroblasts and the more collagen fibers secreted. Therefore, we could adjust the frequency of treatment for different scar features (size, thickness and […]\n3. Figure 3: The ROS response of 5-FuA-Pep-MA prodrug with different concentrations of H2O2 should be shown in both concentration and time.\nWe have revisited the relevant experiment.\nSpecifically, 5-FuA-Pep-MA prodrug was incubated with PBS containing different concentrations (10, 50, 100 and 300 μM) of H2O2 at 37 ℃, respectively . 50 μL solutio n was taken out at a pres et time (24, 48, 72, 96 and 120 h), which was analy zed by HPLC. […]\nand concentration-dependent (Fig. 3g). […]\nFor the question3: As described in method:  The peak area obtained from the sample without H2O2 was recorded as A0, while the peak area obtained from the sample with H2O2 was recorded as Ac. The degradation rate was calculated by [(A0-Ac)/A0] À 100% to evaluate the ROS response of peptide prodrug […]\nA direct observation of more 5-FU with more H2O2, by HPLC or other methods, either in-vitro or in-vivo, would be more convictive. For example, glucose responsive release of insulin was detected by insulin elisa kit, not the degradation of vesicles […]"}},
  "note": "Peptide text beside a SMILES is read from it. * marks the point of attachment. Acetyl(5-fluorouracil-1-yl) = O=C(Cn1cc(F)c(=O)[nH]c1=O)*; Methacryloyl = C=C(C)C(=O)*",
  "data": [
    {"smiles": "O=c1[nH]cc(F)c(=O)[nH]1", "note": "[5-Fu, 5-Fluorouracil]", "values": [
      {"measurement": "cell viability", "setting": "NIH/3T3 fibroblasts [1]; 250 μM, 48 h incubation, CCK-8, absorption at 450 nm, mean of n = 4", "result": 46.9, "unit": "%"},
      {"measurement": "scar elevation index (SEI)", "setting": "rabbit ear HS model", "result": 2.2},
      {"measurement": "half-life", "setting": "[2]", "result": "10 to 20", "unit": "min"}
    ]},
    {"smiles": "O=C(O)Cn1cc(F)c(=O)[nH]c1=O", "note": "[5-FuA, 5-Fuorouracil-1-acetic acid]", "values": [
      {"measurement": "inhibitory effect on fibroblasts compared among 5-FuA, 5-FuA-Pep-MA and 5-FuA-Pro-Pro", "setting": "NIH/3T3 fibroblasts [1]", "result": "no significant difference"},
      {"measurement": "wound healing rate", "setting": "NIH/3T3 fibroblasts [3]", "result": 48.3, "unit": "%"}
    ]},
    {"smiles": "C=C(C)C(=O)NCCCC[C@H](NC(=O)[C@@H]1CCCN1C(=O)[C@@H]1CCCN1C(=O)[C@@H]1CCCN1C(=O)Cn1cc(F)c(=O)[nH]c1=O)C(N)=O", "note": "[5-FuA-Pep-MA] ({Acetyl(5-fluorouracil-1-yl)}-PPPK(Methacryloyl)-NH2)", "values": [
      {"measurement": "inhibitory effect on fibroblasts compared among 5-FuA, 5-FuA-Pep-MA and 5-FuA-Pro-Pro", "setting": "NIH/3T3 fibroblasts [1]", "result": "no significant difference"},
      {"measurement": "wound healing rate", "setting": "NIH/3T3 fibroblasts [3]", "result": 51.6, "unit": "%"},
      {"measurement": "intracellular ROS fluorescence intensity", "setting": "[4]", "result": "significantly reduced"},
      {"measurement": "ROS-responsive cleavage rate", "setting": "[5]", "result": "positively correlated with H2O2 concentrations and incubation time"}
    ]},
    {"smiles": "O=C(O)[C@@H]1CCCN1C(=O)[C@@H]1CCCN1C(=O)Cn1cc(F)c(=O)[nH]c1=O", "note": "[5-FuA-Pro-Pro]", "values": [
      {"measurement": "inhibitory effect on fibroblasts compared among 5-FuA, 5-FuA-Pep-MA and 5-FuA-Pro-Pro", "setting": "NIH/3T3 fibroblasts [1]", "result": "no significant difference"},
      {"measurement": "wound healing rate", "setting": "NIH/3T3 fibroblasts [3]", "result": 53.2, "unit": "%"}
    ]}
  ]
}
